According to patent US20240409585A1, “MACROCYCLIC IMMUNOMODULATORS” (priority 2021, published 2024):
Bridge positions count the residues as written; N and C are the ends. Square brackets hold non-standard residues; d marks the D form. Peptide text beside a SMILES is read from it. * marks the point of attachment. dPhe(4-NO2) = N[C@H](Cc1ccc([N+](=O)[O-])cc1)C(=O)O; dPhe(3,4-F2) = N[C@H](Cc1ccc(F)c(F)c1)C(=O)O; dPhe(4-CN) = N#Cc1ccc(C[C@@H](N)C(=O)O)cc1; Bip = N[C@@H](Cc1ccc(-c2ccccc2)cc1)C(=O)O; Tyr(3-I) = N[C@@H](Cc1ccc(O)c(I)c1)C(=O)O; Phe(4-CN) = N#Cc1ccc(C[C@H](N)C(=O)O)cc1; hTyr = N[C@@H](CCc1ccc(O)cc1)C(=O)O; Ala(cPr) = N[C@@H](CC1CC1)C(=O)O; 3Pal = N[C@@H](Cc1cccnc1)C(=O)O; d3Pal = N[C@H](Cc1cccnc1)C(=O)O; Cha = N[C@@H](CC1CCCCC1)C(=O)O; Carboxymethyl = O=C(O)C*; NMeA = CN[C@@H](C)C(=O)O; Nva = CCC[C@H](N)C(=O)O; Abu = CC[C@H](N)C(=O)O

These molecules were tested against T1, PE-labeled human PD-L1-Ig binding to Jurkat cell line over-expressing human PD-1 (Jurkat-PD-1) (Homo sapiens, UniProt Q15116) (assay: Jurkat-PD-1 Cell Binding High-Content Screening Assay (CBA): Method 1). Settings: Jurkat-hPD-1 cells, PE-labeled PD-L1-Ig 20 nM final; read-out: Jurkat HPDL1 PD1 IC50 (uM) (Method 1).
T1 construct: expressed in transfected cells; host or cells: Jurkat
T1 sequence (Q15116 25-288): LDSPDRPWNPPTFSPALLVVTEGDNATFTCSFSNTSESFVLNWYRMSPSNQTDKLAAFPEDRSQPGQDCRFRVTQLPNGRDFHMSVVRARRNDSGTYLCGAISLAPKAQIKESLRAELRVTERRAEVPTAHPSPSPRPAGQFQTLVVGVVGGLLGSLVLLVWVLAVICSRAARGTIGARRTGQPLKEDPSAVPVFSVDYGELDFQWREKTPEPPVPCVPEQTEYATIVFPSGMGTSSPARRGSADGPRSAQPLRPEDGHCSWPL

IC50 [µM]	Compound
0.07	CC(C)C[C@@H]1NC(=O)[C@H](CCCNC(=N)N)NC(=O)[C@@H](Cc2ccc(C#N)cc2)NC(=O)[C@H](C)N(C)C(=O)[C@H](CCCNC(=N)N)NC(=O)[C@H](Cc2ccc(-c3ccccc3)cc2)NC(=O)[C@H](C(C)C)NC(=O)[C@H](Cc2c[nH]c3ccccc23)NC(=O)[C@H](CC(=O)O)NC(=O)[C@H](Cc2ccc(O)cc2)NC(=O)[C@H](Cc2ccccc2)NC(=O)CSC[C@@H](C(=O)N[C@@H](C)C(N)=O)NC(=O)[C@H]([C@@H](C)O)NC(=O)[C@H](C(C)C)NC1=O [Compound 1107] ({CH2CO}-FYDWV[Bip]R[NMeA][dPhe(4-CN)]RLVTCA-NH2; thioether N-14)
0.53	COc1ccc(C[C@H]2NC(=O)[C@H](C)N(C)C(=O)[C@H](CCCNC(=N)N)NC(=O)[C@H](Cc3ccc(-c4ccccc4)cc3)NC(=O)[C@H](C(C)C)NC(=O)[C@H](Cc3c[nH]c4ccccc34)NC(=O)[C@H](CC(=O)O)NC(=O)[C@H](Cc3ccc(O)cc3)NC(=O)[C@H](Cc3ccccc3)NC(=O)CSC[C@@H](C(=O)N[C@@H](C)C(N)=O)NC(=O)[C@H]([C@@H](C)O)NC(=O)[C@H](C(C)C)NC(=O)[C@H](CC(C)C)NC(=O)[C@H](CCCNC(=N)N)NC2=O)cc1 [Compound 1108] ({CH2CO}-FYDWV[Bip]R[NMeA][dY](Me)RLVTCA-NH2; thioether N-14)
0.12	CC(C)C[C@@H]1NC(=O)[C@H](CCCNC(=N)N)NC(=O)[C@@H](CC(C)C)NC(=O)[C@H](C)N(C)C(=O)[C@H](CCCNC(=N)N)NC(=O)[C@H](Cc2ccc(-c3ccccc3)cc2)NC(=O)[C@H](C(C)C)NC(=O)[C@H](Cc2c[nH]c3ccccc23)NC(=O)[C@H](CC(=O)O)NC(=O)[C@H](Cc2ccc(O)c(I)c2)NC(=O)[C@H](Cc2ccccc2)NC(=O)CSC[C@@H](C(=O)N[C@@H](C)C(N)=O)NC(=O)[C@H]([C@@H](C)O)NC(=O)[C@H](C(C)C)NC1=O [Compound 1109] ({CH2CO}-F[Tyr(3-I)]DWV[Bip]R[NMeA][dL]RLVTCA-NH2; thioether N-14)
0.04	CC(C)C[C@@H]1NC(=O)[C@H](CCCNC(=N)N)NC(=O)[C@@H](CC(C)C)NC(=O)[C@H](C)N(C)C(=O)[C@H](CCCNC(=N)N)NC(=O)[C@H](Cc2ccc(-c3ccccc3)cc2)NC(=O)[C@H](C(C)C)NC(=O)[C@H](Cc2c[nH]c3ccccc23)NC(=O)[C@H](CC(=O)O)NC(=O)[C@H](Cc2ccc(OCC(=O)O)cc2)NC(=O)[C@H](Cc2cccnc2)NC(=O)CSC[C@@H](C(=O)N[C@@H](C)C(N)=O)NC(=O)[C@H]([C@@H](C)O)NC(=O)[C@H](C(C)C)NC1=O [Compound 1110] ({CH2CO}-[3Pal]Y(Carboxymethyl)DWV[Bip]R[NMeA][dL]RLVTCA-NH2; thioether N-14)
0.07	CC(C)C[C@H]1NC(=O)[C@H](C)N(C)C(=O)[C@H](CCCNC(=N)N)NC(=O)[C@H](Cc2ccc(-c3ccccc3)cc2)NC(=O)[C@H](C(C)C)NC(=O)[C@H](Cc2c[nH]c3ccccc23)NC(=O)[C@H](CC(=O)O)NC(=O)[C@H](Cc2ccc(O)cc2)NC(=O)[C@H](Cc2ccccc2)NC(=O)CSC[C@@H](C(=O)N[C@@H](C)C(N)=O)NC(=O)[C@H]([C@@H](C)O)NC(=O)[C@H](C(C)C)NC(=O)[C@H](CC2CC2)NC(=O)[C@H](CCCNC(=N)N)NC1=O [Compound 1111] ({CH2CO}-FYDWV[Bip]R[NMeA][dL]R[Ala(cPr)]VTCA-NH2; thioether N-14)
0.1	CCC[C@@H]1NC(=O)[C@H](CC(C)C)NC(=O)[C@H](CCCNC(=N)N)NC(=O)[C@@H](CC(C)C)NC(=O)[C@H](C)N(C)C(=O)[C@H](CCCNC(=N)N)NC(=O)[C@H](Cc2ccc(-c3ccccc3)cc2)NC(=O)[C@H](C(C)C)NC(=O)[C@H](Cc2c[nH]c3ccccc23)NC(=O)[C@H](CC(=O)O)NC(=O)[C@H](Cc2ccc(O)cc2)NC(=O)[C@H](Cc2ccccc2)NC(=O)CSC[C@@H](C(=O)N[C@@H](C)C(N)=O)NC(=O)[C@H]([C@@H](C)O)NC1=O [Compound 1112] ({CH2CO}-FYDWV[Bip]R[NMeA][dL]RL[Nva]TCA-NH2; thioether N-14)
0.14	CCC[C@@H]1NC(=O)[C@H](CCCNC(=N)N)NC(=O)[C@@H](CC(C)C)NC(=O)[C@H](C)N(C)C(=O)[C@H](CCCNC(=N)N)NC(=O)[C@H](Cc2ccc(-c3ccccc3)cc2)NC(=O)[C@H](C(C)C)NC(=O)[C@H](Cc2c[nH]c3ccccc23)NC(=O)[C@H](CC(=O)O)NC(=O)[C@H](Cc2ccc(O)cc2)NC(=O)[C@H](Cc2ccccc2)NC(=O)CSC[C@@H](C(=O)N[C@@H](C)C(N)=O)NC(=O)[C@H]([C@@H](C)O)NC(=O)[C@H](C(C)C)NC1=O [Compound 1113] ({CH2CO}-FYDWV[Bip]R[NMeA][dL]R[Nva]VTCA-NH2; thioether N-14)
0.93	CC[C@@H]1NC(=O)[C@H](CCCNC(=N)N)NC(=O)[C@@H](CC(C)C)NC(=O)[C@H](C)N(C)C(=O)[C@H](CCCNC(=N)N)NC(=O)[C@H](Cc2ccc(-c3ccccc3)cc2)NC(=O)[C@H](C(C)C)NC(=O)[C@H](Cc2c[nH]c3ccccc23)NC(=O)[C@H](CC(=O)O)NC(=O)[C@H](Cc2ccc(O)cc2)NC(=O)[C@H](Cc2ccccc2)NC(=O)CSC[C@@H](C(=O)N[C@@H](C)C(N)=O)NC(=O)[C@H]([C@@H](C)O)NC(=O)[C@H](C(C)C)NC1=O [Compound 1114] ({CH2CO}-FYDWV[Bip]R[NMeA][dL]R[Abu]VTCA-NH2; thioether N-14)
0.05	CC(C)C[C@H]1NC(=O)[C@H](C)N(C)C(=O)[C@H](CCCNC(=N)N)NC(=O)[C@H](Cc2ccc(-c3ccccc3)cc2)NC(=O)[C@H](C(C)C)NC(=O)[C@H](Cc2c[nH]c3ccccc23)NC(=O)[C@H](CC(=O)O)NC(=O)[C@H](Cc2ccc(O)cc2)NC(=O)[C@H](Cc2ccccc2)NC(=O)CSC[C@@H](C(=O)N[C@@H](C)C(N)=O)NC(=O)[C@H]([C@@H](C)O)NC(=O)[C@H](C(C)C)NC(=O)[C@H](CC2CCCCC2)NC(=O)[C@H](CCCNC(=N)N)NC1=O [Compound 1115] ({CH2CO}-FYDWV[Bip]R[NMeA][dL]R[Cha]VTCA-NH2; thioether N-14)

The next lines start with the molecule.

Compound	IC50 [µM]
CC(C)C[C@@H]1NC(=O)[C@H](CCCNC(=N)N)NC(=O)[C@@H](CC(C)C)NC(=O)[C@H](C)N(C)C(=O)[C@H](CCCNC(=N)N)NC(=O)[C@H](Cc2ccc(-c3ccccc3)cc2)NC(=O)[C@H](C(C)C)NC(=O)[C@H](Cc2c[nH]c3ccccc23)NC(=O)[C@H](CC(=O)O)NC(=O)[C@H](Cc2ccc(C#N)cc2)NC(=O)[C@H](Cc2ccccc2)NC(=O)CSC[C@@H](C(=O)N[C@@H](C)C(N)=O)NC(=O)[C@H]([C@@H](C)O)NC(=O)[C@H](C(C)C)NC1=O [Compound 1100] ({CH2CO}-F[Phe(4-CN)]DWV[Bip]R[NMeA][dL]RLVTCA-NH2; thioether N-14)	0.53
CC(C)C[C@@H]1NC(=O)[C@H](CCCNC(=N)N)NC(=O)[C@@H](CC(C)C)NC(=O)[C@H](C)N(C)C(=O)[C@H](CCCNC(=N)N)NC(=O)[C@H](Cc2ccc(-c3ccccc3)cc2)NC(=O)[C@H](C(C)C)NC(=O)[C@H](Cc2c[nH]c3ccccc23)NC(=O)[C@H](CC(=O)O)NC(=O)[C@H](Cc2cccnc2)NC(=O)[C@H](Cc2ccccc2)NC(=O)CSC[C@@H](C(=O)N[C@@H](C)C(N)=O)NC(=O)[C@H]([C@@H](C)O)NC(=O)[C@H](C(C)C)NC1=O [Compound 1101] ({CH2CO}-F[3Pal]DWV[Bip]R[NMeA][dL]RLVTCA-NH2; thioether N-14)	0.29
CC(C)C[C@@H]1NC(=O)[C@H](CCCNC(=N)N)NC(=O)[C@@H](Cc2ccc([N+](=O)[O-])cc2)NC(=O)[C@H](C)N(C)C(=O)[C@H](CCCNC(=N)N)NC(=O)[C@H](Cc2ccc(-c3ccccc3)cc2)NC(=O)[C@H](C(C)C)NC(=O)[C@H](Cc2c[nH]c3ccccc23)NC(=O)[C@H](CC(=O)O)NC(=O)[C@H](Cc2ccc(O)cc2)NC(=O)[C@H](Cc2ccccc2)NC(=O)CSC[C@@H](C(=O)N[C@@H](C)C(N)=O)NC(=O)[C@H]([C@@H](C)O)NC(=O)[C@H](C(C)C)NC1=O [Compound 1102] ({CH2CO}-FYDWV[Bip]R[NMeA][dPhe(4-NO2)]RLVTCA-NH2; thioether N-14)	0.3
CC(C)C[C@@H]1NC(=O)[C@H](CCCNC(=N)N)NC(=O)[C@@H](Cc2ccc(F)c(F)c2)NC(=O)[C@H](C)N(C)C(=O)[C@H](CCCNC(=N)N)NC(=O)[C@H](Cc2ccc(-c3ccccc3)cc2)NC(=O)[C@H](C(C)C)NC(=O)[C@H](Cc2c[nH]c3ccccc23)NC(=O)[C@H](CC(=O)O)NC(=O)[C@H](Cc2ccc(O)cc2)NC(=O)[C@H](Cc2ccccc2)NC(=O)CSC[C@@H](C(=O)N[C@@H](C)C(N)=O)NC(=O)[C@H]([C@@H](C)O)NC(=O)[C@H](C(C)C)NC1=O [Compound 1103] ({CH2CO}-FYDWV[Bip]R[NMeA][dPhe(3,4-F2)]RLVTCA-NH2; thioether N-14)	0.69
CC(C)C[C@@H]1NC(=O)[C@H](CCCNC(=N)N)NC(=O)[C@@H](Cc2cccnc2)NC(=O)[C@H](C)N(C)C(=O)[C@H](CCCNC(=N)N)NC(=O)[C@H](Cc2ccc(-c3ccccc3)cc2)NC(=O)[C@H](C(C)C)NC(=O)[C@H](Cc2c[nH]c3ccccc23)NC(=O)[C@H](CC(=O)O)NC(=O)[C@H](Cc2ccc(O)cc2)NC(=O)[C@H](Cc2ccccc2)NC(=O)CSC[C@@H](C(=O)N[C@@H](C)C(N)=O)NC(=O)[C@H]([C@@H](C)O)NC(=O)[C@H](C(C)C)NC1=O [Compound 1104] ({CH2CO}-FYDWV[Bip]R[NMeA][d3Pal]RLVTCA-NH2; thioether N-14)	0.13
CC(C)C[C@@H]1NC(=O)[C@H](CCCNC(=N)N)NC(=O)[C@@H](CC(C)C)NC(=O)[C@H](C)N(C)C(=O)[C@H](CCCNC(=N)N)NC(=O)[C@H](Cc2ccc(-c3ccccc3)cc2)NC(=O)[C@H](C(C)C)NC(=O)[C@H](Cc2c[nH]c3ccccc23)NC(=O)[C@H](CC(=O)O)NC(=O)[C@H](CCc2ccc(O)cc2)NC(=O)[C@H](Cc2ccccc2)NC(=O)CSC[C@@H](C(=O)N[C@@H](C)C(N)=O)NC(=O)[C@H]([C@@H](C)O)NC(=O)[C@H](C(C)C)NC1=O [Compound 1106] ({CH2CO}-F[hTyr]DWV[Bip]R[NMeA][dL]RLVTCA-NH2; thioether N-14)	0.07
